Measurements as given in publication PMC6526117 (Experimental Neurobiology, 2019).
Where a chain is given by its changes, count along the chain named.

What was measured:
Assay in all cases: whole-cell patch clamp, SCAM block of ICl,swell
Format in all cases: cell-based
Settings in all cases: read-out: % block
[1] = biological target: T1, TTYH1 (Mus musculus, UniProt Q9D3A9, V164C)
T1 sequence (Q9D3A9 1-450 V164C): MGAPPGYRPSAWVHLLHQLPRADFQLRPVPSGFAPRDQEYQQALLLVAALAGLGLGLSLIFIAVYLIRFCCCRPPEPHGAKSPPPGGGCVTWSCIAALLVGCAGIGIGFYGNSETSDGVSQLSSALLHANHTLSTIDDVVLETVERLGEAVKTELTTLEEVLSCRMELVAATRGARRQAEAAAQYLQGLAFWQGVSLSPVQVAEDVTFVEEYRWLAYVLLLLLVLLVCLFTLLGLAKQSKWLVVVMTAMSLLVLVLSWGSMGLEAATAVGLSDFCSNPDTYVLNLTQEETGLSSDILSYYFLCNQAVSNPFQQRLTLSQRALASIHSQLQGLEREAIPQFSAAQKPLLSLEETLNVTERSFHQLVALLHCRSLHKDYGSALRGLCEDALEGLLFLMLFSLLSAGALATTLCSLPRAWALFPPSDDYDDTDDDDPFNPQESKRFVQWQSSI

[2] = biological target: T2, TTYH1 (Mus musculus, UniProt Q9D3A9)
T2 sequence (Q9D3A9 1-450): T1 sequence (Q9D3A9 1-450 V164C) with C164V

[3] = biological target: T3, TTYH1 (Mus musculus, UniProt Q9D3A9, R165C)
T3 sequence (Q9D3A9 1-450 R165C): T1 sequence (Q9D3A9 1-450 V164C) with C164V, R165C

In the case of `CS(=O)(=O)SCCS(=O)(=O)O` [MTSES], the inhibition at 100000 µM [1] is reported as 28.9%, the inhibition at 100000 µM [2] is reported as 9.01% and the inhibition at 100000 µM [3] is reported as 36.6%.
